A short description of the test: Heparin oral/intracolonic delivery in rats, heparin activity by APTT. Type of test: in vivo, Sprague-Dawley rats. The protocol:
Oral gavage (PO) and/or intracolonic (IC) dosing solutions containing a delivery agent compound and heparin sodium USP in 25% aqueous propylene glycol were prepared. Either the sodium salt of the compound was used or the free acid was converted to the sodium salt with one equivalent of sodium hydroxide. Typically, delivery agent compound and heparin (about 166-182 IU/mg) were mixed by vortex as dry powders. This dry mixture was dissolved in 25% v/v aqueous propylene glycol, vortexed and placed in a sonicator (about 37° C.). The pH was adjusted to about 7 (6.5 to 8.5) with aqueous NaOH (2N). The dosing solution was sonicated to produce a clear solution. The final volume was adjusted to 3.0 mL. The final delivery agent compound dose, heparin dose and volume dose amounts are listed below in Table 2.
The typical dosing and sampling protocols were as follows. Male Sprague-Dawley rats weighing between 275-350 g were fasted for 24 hours and were anesthetized with ketamine hydrochloride (88 mg/kg) intramuscularly immediately prior to dosing. A dosing group of five rats was administered one of the dosing solutions. For oral gavage (PO) dosing, an 11 cm Rusch 8 French catheter was adapted to a 1 mL syringe with a pipette tip. The syringe was filled with dosing solution by drawing the solution through the catheter, which was then wiped dry. The catheter was placed down the esophagus leaving 1 cm of tubing past the rat's incisors. Solution was administered by pressing the syringe plunger. For intracolonic (IC) dosing, a 7.5 cm 8 fr Rusch catheter was adapted to a 1 ml syringe with a pipette tip. The dosing catheter was inserted into the colon through the anus. until the tube was no longer visible. The dosing solution was expressed slowly into the colon.
Citrated blood samples were collected by cardiac puncture following the administration of ketamine (88 mg/kg), typically at time—0.25, 0.5, 1.0 and 1.5 hours. Heparin activity was determined by utilizing the activated partial thromboplastin time (APTT) according to the method of Henry, J. B., Clinical Diagnosis and Management by Laboratory Methods, Philadelphia, Pa., W. B. Saunders (1979). Previous studied indicated baseline values of about 20 sec. Results from the five rats in each group were averaged for each time point. The maximum is reported below in Table 2.

Where [1] appears, read: IC, 1 ml/kg, compound 50 mg/kg, heparin 25 mg/kg.
Where [2] appears, read: PO, 3 ml/kg, compound 200 mg/kg, heparin 100 mg/kg.
[3] abbreviates: IC, 1 ml/kg, compound 50 mg/kg, heparin 100 mg/kg.

For the compound `COc1ccc(O)c(C(=O)NCCCCCCCC(=O)O)c1` [Compound 1], the “Mean Peak APTT (sec) ± SD)” value under setting [1] was 102.3 ± 130.4 s.

For the compound `COc1ccccc1C(=O)NCCCCCCCCCCC(=O)O` [Compound 3], the “Mean Peak APTT (sec) ± SD)” value under setting [1] was 44.2 ± 16.2 s.

For the compound `O=C(O)CCCCCCCCCNC(=O)c1cc(Cl)cc(Cl)c1O` [Compound 4, N-(3,5-dichlorosalicyloyl)-10-aminodecanoic acid], the “Mean Peak APTT (sec) ± SD)” value under setting [1] amounted to 94 ± 47.5 s.

Turning to `O=C([O-])CCc1ccc(NC(=O)c2ccccc2O)c(F)c1.[Na+]` [Compound 5, sodium 3-(4-salicyloylamino-3-fluorophenyl)propionate], the “Mean Peak APTT (sec) ± SD)” value is, setting by setting: under setting [1], 89.9 ± 68.6 s; under setting [2], 32.6 ± 5 s.

Take `Cc1cc(F)cc(C(=O)Nc2ccc(CCC(=O)O)cc2)c1O` [Compound 6]: the “Mean Peak APTT (sec) ± SD)” value is, setting by setting: under setting [1], 90.6 ± 50.9 s; under setting [2], 33.8 ± 18.7 s.

`O=CNc1ccccc1C(=O)Nc1ccc(CCC(=O)O)cc1` [Compound 7]: the “Mean Peak APTT (sec) ± SD)” value under setting [1] was 28.6 ± 6.1 s.

As to `COc1ccc(O)c(C(=O)Nc2ccc(CCC(=O)O)cc2)c1` [Compound 8], the “Mean Peak APTT (sec) ± SD)” value under setting [3] worked out at 266.4 ± 165.7 s.

Turning to `COc1ccc(O)c(C(=O)Nc2ccc(CCCC(=O)O)cc2)c1` [Compound 9], under setting [3], the “Mean Peak APTT (sec) ± SD)” value amounted to 192.8 ± 50.9 s.
